Laboratory results: patent US10376520B2, “Methods for the treatment of cardiovascular disorders” (Galapagos NV, priority 2015, dated 2019)

Test system: RA patients
Assay: Total cholesterol determination, Study 2 (RA patients, monotherapy with Compound 1)
Format: in vivo, human
Source text: Randomized, double-blind, placebo-controlled, multicenter, phase IIb dose finding study of Compound 1 (dosed as a [Compound 1:HCl:3H2O]) administered for 24 weeks as monotherapy to subjects with moderately to severely active rheumatoid arthritis who have an inadequate response to methotrexate alone
Double-blind, placebo-controlled, monotherapy study in subjects with moderately to severely active RA who have an inadequate response to methotrexate (MTX) (oral or parenteral).
280 subjects randomized to one of 3 doses of Compound 1 (dosed as a [Compound 1:HCl:3H2O]) or to placebo, given once daily (q.d.).
Twelve weeks of treatment with Compound 1 (dosed as a [Compound 1:HCl:3H2O]) at 50 mg, 100 mg, or 200 mg q.d.; or placebo. At Week 12, all subjects on placebo and the subjects on the 50 mg dose who have not achieved 20% improvement in swollen joint count (SJC66) and tender joint count (TJC68) will be assigned to 100 mg q.d. in a blinded fashion and will continue treatment until Week 24. Subjects in the other groups will maintain their randomized treatment until Week 24.
This method is based on the determination of Δ^4 cholestenone after enzymatic cleavage of the cholesterol ester by cholesterol esterase, conversion of cholesterol by cholesterol oxidase, and subsequent measurement by the Trinder reaction of the hydrogen peroxide formed (Allain et al., 1974).
Cholesterol esters are cleaved by the action of cholesterol esterase to yield free cholesterol and fatty acids. Cholesterol oxidase then catalyzes the oxidation of cholesterol to cholest-4-en-3-one and hydrogen peroxide. In the presence of peroxidase, the hydrogen peroxide formed effects the oxidative coupling of phenol and 4-aminophenazone to form a red quinone-imine dye. The color intensity of the dye formed is directly proportional to the cholesterol concentration. It is determined by measuring the increase in absorbance.
Human serum and plasma samples cholesterol determination was done on a Roche/Hitachi Cobas c 701/702 system which automatically calculate the analyte concentration of each sample.

[1] = placebo switching to 100 mg q.d. at week 12, week 16
[2] = placebo switching to 100 mg q.d. at week 12, week 20
[3] = placebo switching to 100 mg q.d. at week 12, week 24

SMILES: O=C(Nc1nc2cccc(-c3ccc(CN4CCS(=O)(=O)CC4)cc3)n2n1)C1CC1 [Compound 1, cyclopropanecarboxylic acid {5-[4-(1,1-dioxo-thiomorpholin-4-ylmethyl)-phenyl]-[1,2,4]triazolo[1,5-a]pyridin-2yl}-amide]
- [total cholesterol] Mean percentage CFB - 24 weeks results (200 mg q.d., week 4): 9.35%
- [total cholesterol] Median percentage CFB - 24 weeks results (200 mg q.d., week 4): 7.39%
- [total cholesterol] Mean percentage CFB - 12 weeks results (200 mg q.d., week 8): 9.62%
- [total cholesterol] Mean percentage CFB - 24 weeks results (200 mg q.d., week 8): 9.62%
- [total cholesterol] Median percentage CFB - 24 weeks results (200 mg q.d., week 8): 9.01%
- [total cholesterol] Mean percentage CFB - 12 weeks results (200 mg q.d., week 12): 13.12%
- [total cholesterol] Mean percentage CFB - 24 weeks results (200 mg q.d., week 12): 13.12%
- [total cholesterol] Median percentage CFB - 24 weeks results (200 mg q.d., week 12): 11.96%
- [total cholesterol] Mean percentage CFB - 24 weeks results (200 mg q.d., week 16): 11.40%
- [total cholesterol] Median percentage CFB - 24 weeks results (200 mg q.d., week 16): 8.36%
- [total cholesterol] Mean percentage CFB - 24 weeks results (200 mg q.d., week 20): 11.67%
- [total cholesterol] Median percentage CFB - 24 weeks results (200 mg q.d., week 20): 11.04%
- [total cholesterol] Mean percentage CFB - 24 weeks results (200 mg q.d., week 24): 12.83%
- [total cholesterol] Median percentage CFB - 24 weeks results (200 mg q.d., week 24): 9.81%
- [Total cholesterol] Median CFB (Study 2 12 weeks results, 50 mg q.d., week 1): 0.100 mmol/L
- [Total cholesterol] Median CFB (Study 2 12 weeks results, 50 mg q.d., week 2): 0.000 mmol/L
- [Total cholesterol] Median CFB (Study 2 12 weeks results, 50 mg q.d., week 4): 0.000 mmol/L
- [Total cholesterol] Median CFB (Study 2 12 weeks results, 50 mg q.d., week 8): 0.250 mmol/L
- [Total cholesterol] Median CFB (Study 2 12 weeks results, 50 mg q.d., week 12): 0.140 mmol/L
- [Total cholesterol] Median CFB (Study 2 12 weeks results, 100 mg q.d., week 1): 0.100 mmol/L
- [Total cholesterol] Median CFB (Study 2 12 weeks results, 100 mg q.d., week 2): 0.140 mmol/L
- [Total cholesterol] Median CFB (Study 2 12 weeks results, 100 mg q.d., week 4): 0.265 mmol/L
- [Total cholesterol] Median CFB (Study 2 12 weeks results, 100 mg q.d., week 8): 0.250 mmol/L
- [Total cholesterol] Median CFB (Study 2 12 weeks results, 100 mg q.d., week 12): 0.350 mmol/L
- [Total cholesterol] Median CFB (Study 2 12 weeks results, 200 mg q.d., week 1): 0.260 mmol/L
- [Total cholesterol] Median CFB (Study 2 12 weeks results, 200 mg q.d., week 2): 0.330 mmol/L
- [Total cholesterol] Median CFB (Study 2 12 weeks results, 200 mg q.d., week 4): 0.390 mmol/L
- [Total cholesterol] Median CFB (Study 2 12 weeks results, 200 mg q.d., week 8): 0.400 mmol/L
- [Total cholesterol] Median CFB (Study 2 12 weeks results, 200 mg q.d., week 12): 0.560 mmol/L
- [Total cholesterol] Median CFB (Study 2 24 weeks results, 50 mg q.d. non responders switching to 100 mg q.d. at week 12, week 1): 0.150 mmol/L
- [Total cholesterol] Median CFB (Study 2 24 weeks results, 50 mg q.d. non responders switching to 100 mg q.d. at week 12, week 2): 0.100 mmol/L
- [Total cholesterol] Median CFB (Study 2 24 weeks results, 50 mg q.d. non responders switching to 100 mg q.d. at week 12, week 4): 0.350 mmol/L
- [Total cholesterol] Median CFB (Study 2 24 weeks results, 50 mg q.d. non responders switching to 100 mg q.d. at week 12, week 8): 0.140 mmol/L
- [Total cholesterol] Median CFB (Study 2 24 weeks results, 50 mg q.d. non responders switching to 100 mg q.d. at week 12, week 12): 0.330 mmol/L
- [Total cholesterol] Median CFB (Study 2 24 weeks results, 50 mg q.d. non responders switching to 100 mg q.d. at week 12, week 16): 0.540 mmol/L
- [Total cholesterol] Median CFB (Study 2 24 weeks results, 50 mg q.d. non responders switching to 100 mg q.d. at week 12, week 20): 0.280 mmol/L
- [Total cholesterol] Median CFB (Study 2 24 weeks results, 50 mg q.d. non responders switching to 100 mg q.d. at week 12, week 24): 0.550 mmol/L
- [Total cholesterol] Median CFB (Study 2 24 weeks results, 50 mg q.d. responders, week 1): 0.020 mmol/L
- [Total cholesterol] Median CFB (Study 2 24 weeks results, 50 mg q.d. responders, week 2): -0.040 mmol/L
- [Total cholesterol] Median CFB (Study 2 24 weeks results, 50 mg q.d. responders, week 4): -0.030 mmol/L
- [Total cholesterol] Median CFB (Study 2 24 weeks results, 50 mg q.d. responders, week 8): 0.350 mmol/L
- [Total cholesterol] Median CFB (Study 2 24 weeks results, 50 mg q.d. responders, week 12): 0.060 mmol/L
- [Total cholesterol] Median CFB (Study 2 24 weeks results, 50 mg q.d. responders, week 16): 0.165 mmol/L
- [Total cholesterol] Median CFB (Study 2 24 weeks results, 50 mg q.d. responders, week 20): 0.215 mmol/L
- [Total cholesterol] Median CFB (Study 2 24 weeks results, 50 mg q.d. responders, week 24): 0.250 mmol/L
- [Total cholesterol] Median CFB (Study 2 24 weeks results, 100 mg q.d., week 1): 0.100 mmol/L
- [Total cholesterol] Median CFB (Study 2 24 weeks results, 100 mg q.d., week 2): 0.140 mmol/L
- [Total cholesterol] Median CFB (Study 2 24 weeks results, 100 mg q.d., week 4): 0.265 mmol/L
- [Total cholesterol] Median CFB (Study 2 24 weeks results, 100 mg q.d., week 8): 0.250 mmol/L
- [Total cholesterol] Median CFB (Study 2 24 weeks results, 100 mg q.d., week 12): 0.350 mmol/L
- [Total cholesterol] Median CFB (Study 2 24 weeks results, 100 mg q.d., week 16): 0.400 mmol/L
- [Total cholesterol] Median CFB (Study 2 24 weeks results, 100 mg q.d., week 20): 0.400 mmol/L
- [Total cholesterol] Median CFB (Study 2 24 weeks results, 100 mg q.d., week 24): 0.445 mmol/L
- [Total cholesterol] Median CFB (Study 2 24 weeks results, 200 mg q.d., week 1): 0.260 mmol/L
- [Total cholesterol] Median CFB (Study 2 24 weeks results, 200 mg q.d., week 2): 0.330 mmol/L
- [Total cholesterol] Median CFB (Study 2 24 weeks results, 200 mg q.d., week 4): 0.390 mmol/L
- [Total cholesterol] Median CFB (Study 2 24 weeks results, 200 mg q.d., week 8): 0.400 mmol/L
- [Total cholesterol] Median CFB (Study 2 24 weeks results, 200 mg q.d., week 12): 0.560 mmol/L
- [Total cholesterol] Median CFB (Study 2 24 weeks results, 200 mg q.d., week 16): 0.410 mmol/L
- [Total cholesterol] Median CFB (Study 2 24 weeks results, 200 mg q.d., week 20): 0.490 mmol/L
- [Total cholesterol] Median CFB (Study 2 24 weeks results, 200 mg q.d., week 24): 0.565 mmol/L
- [Total cholesterol] Median CFB (Study 2 24 weeks results, placebo switching to 100 mg q.d. at week 12, week 16): 0.200 mmol/L
- [Total cholesterol] Median CFB (Study 2 24 weeks results, placebo switching to 100 mg q.d. at week 12, week 20): 0.220 mmol/L
- [Total cholesterol] Median CFB (Study 2 24 weeks results, placebo switching to 100 mg q.d. at week 12, week 24): 0.300 mmol/L
- [total cholesterol] Mean percentage CFB - 24 weeks results [1]: 5.14%
- [total cholesterol] Median percentage CFB - 24 weeks results [1]: 3.87%
- [total cholesterol] Mean percentage CFB - 24 weeks results [2]: 7.27%
- [total cholesterol] Median percentage CFB - 24 weeks results [2]: 5.09%
- [total cholesterol] Mean percentage CFB - 24 weeks results [3]: 6.98%
- [total cholesterol] Median percentage CFB - 24 weeks results [3]: 5.57%
